The results in this text go back to PubChem BioAssay AID2842 (Southern Research Institute, 2010).

≈ marks a conversion by molar mass, not a printed value.

In this assay the test system is M. tuberculosis H37Rv growth inhibition. The assay is described as follows: Mycobacterium tuberculosis H37Rv growth inhibition, putative kinase inhibitor library, confirmatory dose response (AID 2842).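 Further: bacteria incubated one week before Alamar blue readout.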

Consider `CC(C)C(=O)Nc1nnc(-c2ccccc2)o1`, for which the IC90 – broadly, the point of the concentration-response curve where the effect stands at 90% – is 3.31 µg/mL (≈ 14.3 µM).
For the compound `Cc1ccc(-c2nnc3c4cc5c(cc4n(Cc4ccccc4F)cc2-3)OCCO5)cc1C`, the IC90 is 6.25 µg/mL (≈ 14.2 µM).
Take `N#C/C(=C\c1ccc([N+](=O)[O-])cc1)c1nc2ccccc2[nH]1`: the IC90 was 6.12 µg/mL (≈ 21.1 µM).
The result for `CSc1ccc2nc(Nc3cccc(C)c3C)sc2c1` reads 18.8 µg/mL (≈ 62.7 µM); that for `CCOc1ccc(-c2nnc3c4cc5c(cc4n(Cc4cccc(F)c4)cc2-3)OCO5)cc1`, 54.2 µg/mL (≈ 123 µM); that for `CN(C)c1ccc(Nc2nncc(=O)[nH]2)cc1`, 8.05 µg/mL (≈ 34.8 µM).
The result for `N#Cc1ccc(C(=O)Nc2nnc(-c3ccc4c(c3)CCCC4)o2)cc1` reads 1.71 µg/mL (≈ 4.97 µM); that for `Cc1cccc(Cn2cc3c(-c4ccc(C)c(C)c4)nnc-3c3cc4c(cc32)OCCO4)c1`, 3.47 µg/mL (≈ 7.97 µM).
The result for `CC1CN(c2ncnc3c2c(-c2ccccc2)cn3-c2ccccc2)CC(C)O1` (stereo not given) reads 29.1 µg/mL (≈ 75.8 µM); that for `O=C(Nc1nc(-c2ccc3c(c2)CCCC3)cs1)c1ccc2c(c1)OCCO2`, 14.5 µg/mL (≈ 36.9 µM).
Take `COc1cccc(-c2nnc(NC(=O)C(C)C)o2)c1`: the IC90 was 32.7 µg/mL (≈ 125 µM).
Next, `C=CCN(CC=C)S(=O)(=O)c1ccc(C(=O)Nc2nnc(-c3cc(Cl)ccc3Cl)o2)cc1`: 12.8 µg/mL (≈ 25.9 µM); `Cc1ccc(Nc2nc(Nc3cccc(F)c3)nc(N3CCOCC3)n2)cc1C`: 13.5 µg/mL (≈ 34.2 µM).
Next, `COC(=O)c1c(NC(=O)c2ccc(C)c(C)c2)sc2c1CCN(C(C)=O)C2`: 48 µg/mL (≈ 124 µM); `Cc1c(C)n2c3c(=O)[nH]c(=O)n(C)c3nc2n1-c1ccccc1O`: 0.75 µg/mL (≈ 2.31 µM); `COc1cccc2sc(Nc3nc4ccc(Cl)cc4s3)nc12`: 13.9 µg/mL (≈ 40 µM).
The result for `COc1ccc2sc(Nc3nc(-c4ccccn4)cs3)nc2c1` reads 1.59 µg/mL (≈ 4.67 µM); that for `Cn1c(=O)c2c(nc(SCC(=O)c3ccccc3)n2Cc2ccc(F)cc2)n(C)c1=O`, 31.8 µg/mL (≈ 72.4 µM).
Turning to `CCC(=O)Nc1nnc(-c2ccc(Br)cc2)o1`, the IC90 is 6.26 µg/mL (≈ 21.1 µM).
The result for `CC(=O)Nc1ccc2nc(Nc3nc4ccc(Cl)cc4s3)sc2c1` reads 8.93 µg/mL (≈ 23.8 µM).
Next, `CCOc1ccc2c(c1)c1nnc(-c3ccc(OC)cc3)c-1cn2Cc1ccccc1F`: 4.73 µg/mL (≈ 11.1 µM).
The result for `COc1ccc(-c2nnc3c4cc5c(cc4n(Cc4ccc(C)cc4)cc2-3)OCCO5)cc1` reads 5.09 µg/mL (≈ 11.6 µM); that for `COc1cc(/C=C(\C#N)c2nc(-c3ccc4c(c3)OCO4)cs2)cc([N+](=O)[O-])c1O`, 37.7 µg/mL (≈ 89.2 µM).
Take `O=C(c1ccco1)N(CCCn1ccnc1)c1nc2ccc(Br)cc2s1`: the IC90 was 0.74 µg/mL (≈ 1.72 µM).
The result for `Cc1ccc(C)c(-c2nnc(NC(=O)c3ccccc3)o2)c1` reads 24.5 µg/mL (≈ 83.7 µM); that for `Cc1cccc(-c2nc(SCC(=O)Nc3ccc4c(c3)OCO4)c(-c3ccccc3)[nH]2)c1`, 9.98 µg/mL (≈ 22.5 µM).
On to `Cc1ccc(-n2ncc3c(=O)n(CC(=O)Nc4ccc([N+](=O)[O-])cc4)cnc32)cc1`, for which the IC90 is 6.91 µg/mL (≈ 17.1 µM).
The result for `Cc1cccc2nc(NC(=O)c3ccc(Oc4ccccc4)cc3)sc12` reads 8.53 µg/mL (≈ 23.7 µM); that for `COc1ccc(-c2nsc(SCC(=O)NCc3ccco3)n2)cc1`, below 0.2 µg/mL; that for `O=[N+]([O-])c1cccc(-c2ccc(/C=N/O)o2)c1`, 11.9 µg/mL (≈ 51.1 µM).
Next, `O=C(Nc1ccc(S(=O)(=O)N2CCC(c3nc4ccccc4[nH]3)CC2)cc1)c1cccc(Cl)c1`: 0.86 µg/mL (≈ 1.74 µM).
Next, `Cc1ccc(NC(=O)CC2C(=O)Nc3ccccc3N2C(=O)c2ccc(Br)cc2)cc1C` (stereo not given): 2.24 µg/mL (≈ 4.55 µM); `CCOc1cccc2sc(Nc3nc4ccc(OC)cc4s3)nc12`: 3.19 µg/mL (≈ 8.92 µM); `CCCCn1c(N2CCN(Cc3ccc(Cl)c(Cl)c3)CC2)nc2c1c(=O)[nH]c(=O)n2C`: 7.15 µg/mL (≈ 15.4 µM).
Regarding `Cc1ccc(C)c(-c2nnc(NC(=O)c3cccc(Cl)c3)o2)c1`, the IC90 was 16.3 µg/mL (≈ 49.8 µM).
The result for `CC(C)(C)c1ccc(C(=O)Nc2nnc(-c3ccc(S(C)(=O)=O)cc3)o2)cc1` reads 24.6 µg/mL (≈ 61.7 µM).
The result for `O=C(COc1ccc2ccccc2c1)Nc1nnc2n1CCS2` reads 23.6 µg/mL (≈ 72.2 µM).
The result for `CC(C)c1ccc(-c2csc(NC(=O)c3ccc4c(c3)OCCO4)n2)cc1` reads 3.39 µg/mL (≈ 8.91 µM); that for `Cc1ccc(C)c(-c2nnc(NC(=O)c3ccc([N+](=O)[O-])o3)o2)c1`, 1.29 µg/mL (≈ 3.93 µM).
Take `COc1ccc2sc(Nc3nnc(-c4ccco4)o3)nc2c1`: the IC90 was 80 µg/mL (≈ 255 µM).
Next, `COc1ccc(C)c2sc(N(CCCn3ccnc3)C(=O)c3cccs3)nc12`: 2.4 µg/mL (≈ 5.82 µM); `CCCCC(=O)Nc1nnc(-c2ccc3c(c2)OCCO3)o1`: 9.06 µg/mL (≈ 29.9 µM).
Next, `COc1cccc(-c2nnc(NC(=O)c3ccc4c(c3)CCCC4)o2)c1`: 5.48 µg/mL (≈ 15.7 µM); `Cc1ccc(-c2nnc(NC(=O)c3ccc(Br)s3)o2)c(C)c1`: 2.17 µg/mL (≈ 5.74 µM); `O=C(Nc1nnc(-c2ccc3c(c2)CCCC3)o1)c1sc2ccccc2c1Cl`: 34.5 µg/mL (≈ 84.2 µM).
Next, `COc1ccccc1N1CCN(c2nc(Nc3ccc(C)c(C)c3)c3nccnc3n2)CC1`: 1.68 µg/mL (≈ 3.8 µM); `N=c1nnc2c3ccccc3ccc2n1O`: 41.3 µg/mL (≈ 195 µM); `O=C(Nc1nnc(-c2ccco2)o1)c1ccccc1F`: 6.69 µg/mL (≈ 24.5 µM).
On to `COc1cccc2sc(Nc3nc4ccc(S(C)(=O)=O)cc4s3)nc12`, for which the IC90 is 20.2 µg/mL (≈ 51.7 µM).
The result for `O=C(Nc1ncc(Cc2ccccc2Cl)s1)c1cccs1` reads 18.3 µg/mL (≈ 54.5 µM); that for `Cc1cccn2c(=O)c3cc(C(=O)NC(C)c4ccccc4)c(=N)n(C4CCCCC4)c3nc12` (stereo not given), 3.05 µg/mL (≈ 6.7 µM); that for `OCCN1CCN(c2nc(Nc3cccc(Cl)c3)c3cnn(-c4ccccc4)c3n2)CC1`, 0.73 µg/mL (≈ 1.62 µM).
For the compound `O=C(Nc1nnc(-c2ccc(Br)cc2)o1)C1=COCCO1`, the IC90 was 24.9 µg/mL (≈ 70.8 µM).
Next, `Cc1ccc(-c2nnc(NC(=O)c3ccccc3)o2)c(C)c1`: 8.78 µg/mL (≈ 29.9 µM); `COc1ccc2nc(N=Nc3c(C)[nH]n(-c4ccccc4)c3=O)sc2c1`: 7.7 µg/mL (≈ 21.1 µM); `Cc1ccc(Nc2nc(N3CCCC3)nc3nccnc23)cc1C`: 3.21 µg/mL (≈ 10 µM).
As to `CCOC(=O)N1CCN(c2ncnc3c2cnn3-c2ccc(C)cc2)CC1`, the IC90 is 21.4 µg/mL (≈ 58.5 µM).
Regarding `COc1cc(-c2nnc(NC(=O)C3CCCCC3)o2)cc(OC)c1OC`, the IC90 was 18.4 µg/mL (≈ 50.8 µM).
The result for `Cc1ccc(C2=NC(C)(C)N=C2SCC(=O)Nc2ccc(C)c(C)c2)cc1` reads 23.5 µg/mL (≈ 61.9 µM).
Next, `C=CCOC(=O)COc1ccc2c(-c3cc4ccccc4oc3=O)cc(=O)oc2c1`: 4.35 µg/mL (≈ 10.8 µM); `COc1ccccc1-c1nnc(NC(=O)Cc2ccc(SC)cc2)o1`: 52.6 µg/mL (≈ 148 µM).
Next, `COc1cccc2sc(Nc3nnc(-c4ccc(F)cc4)o3)nc12`: 2.97 µg/mL (≈ 8.68 µM); `COC(=O)c1c2c(n3ccc(C)cc13)C(=O)c1ccccc1C2=O`: 0.35 µg/mL (≈ 1.1 µM); `CC1(C)COCN1S(=O)(=O)c1ccc(C(=O)Nc2nnc(-c3ccc(F)cc3)o2)cc1`: 23.3 µg/mL (≈ 52.1 µM).
On to `CCN(CC)S(=O)(=O)c1ccc(C(=O)Nc2nnc(-c3cc(Cl)ccc3Cl)o2)cc1`, for which the IC90 was 7.57 µg/mL (≈ 16.1 µM).
Next, `COc1ccc2nc(N3CCCC3)sc2c1`: 8.36 µg/mL (≈ 35.7 µM); `Fc1cccc2sc(Nc3nc(-c4cccs4)cs3)nc12`: 25.4 µg/mL (≈ 76 µM).
Consider `Cc1n[nH]c(=O)nc1N/N=C/c1cccc(OCc2ccccc2Cl)c1`, for which the IC90 was 35.9 µg/mL (≈ 97.2 µM).
Next, `COc1ccc(-c2nc(C(N)=O)c3[nH]c(=O)n(-c4ccc(C(C)(C)C)cc4)c3n2)c(OC)c1`: 17.3 µg/mL (≈ 38.7 µM).
Take `O=C(NCc1nnc(SCC(=O)N2CCC(Cc3ccccc3)CC2)o1)c1ccco1`: the IC90 was 25.1 µg/mL (≈ 57 µM).
